Source: the Kinase Knowledgebase extract (Sharma et al. 2016)

Each molecule was assayed against EGFR (murine) (UniProt P00533). Settings: f/l herc cells.
EGFR (murine), sequence (P00533 whole entry, looked up): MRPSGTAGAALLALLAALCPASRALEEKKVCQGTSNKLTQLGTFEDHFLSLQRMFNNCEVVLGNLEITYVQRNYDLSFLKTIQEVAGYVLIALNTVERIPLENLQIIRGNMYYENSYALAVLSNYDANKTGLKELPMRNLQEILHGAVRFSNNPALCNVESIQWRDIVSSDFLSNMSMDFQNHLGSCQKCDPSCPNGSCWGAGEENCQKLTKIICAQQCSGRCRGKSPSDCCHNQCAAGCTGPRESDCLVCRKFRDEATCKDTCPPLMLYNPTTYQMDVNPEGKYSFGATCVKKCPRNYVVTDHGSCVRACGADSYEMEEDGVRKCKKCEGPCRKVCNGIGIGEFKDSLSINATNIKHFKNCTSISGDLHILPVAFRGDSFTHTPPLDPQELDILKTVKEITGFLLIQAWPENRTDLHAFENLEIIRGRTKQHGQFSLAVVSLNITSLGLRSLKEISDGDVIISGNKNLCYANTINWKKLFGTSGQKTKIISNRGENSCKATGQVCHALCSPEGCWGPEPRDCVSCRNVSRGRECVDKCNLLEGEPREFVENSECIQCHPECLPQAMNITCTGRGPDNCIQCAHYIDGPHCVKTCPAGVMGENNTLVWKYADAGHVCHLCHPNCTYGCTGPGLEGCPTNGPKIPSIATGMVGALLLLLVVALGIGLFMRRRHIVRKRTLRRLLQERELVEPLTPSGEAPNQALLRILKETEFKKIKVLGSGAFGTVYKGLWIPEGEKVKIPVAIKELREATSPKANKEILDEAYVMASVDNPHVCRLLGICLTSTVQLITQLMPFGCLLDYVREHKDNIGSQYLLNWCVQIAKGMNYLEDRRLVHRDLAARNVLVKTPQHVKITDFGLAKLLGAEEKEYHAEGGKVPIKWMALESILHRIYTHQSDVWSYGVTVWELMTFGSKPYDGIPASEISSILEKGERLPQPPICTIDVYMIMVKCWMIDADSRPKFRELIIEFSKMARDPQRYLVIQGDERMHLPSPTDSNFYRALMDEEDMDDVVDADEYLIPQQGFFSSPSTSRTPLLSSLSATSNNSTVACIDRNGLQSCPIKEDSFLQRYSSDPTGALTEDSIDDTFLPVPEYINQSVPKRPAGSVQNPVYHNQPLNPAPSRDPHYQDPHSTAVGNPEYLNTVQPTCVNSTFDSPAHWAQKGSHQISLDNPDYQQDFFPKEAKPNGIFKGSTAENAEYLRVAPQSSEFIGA

Structure (SMILES)	IC50
CN1CCN(C2CCC(Nc3ncc4ncnc(Nc5ccc(F)c(Cl)c5)c4n3)CC2)CC1 (stereo not drawn)	> 1 nM
CC(C)(N)CNc1ncc2ncnc(Nc3ccc(F)c(Cl)c3)c2n1	> 10 nM
Fc1ccc(Nc2ncnc3cnc(NC4CN5CCC4CC5)nc23)cc1Cl (stereo not drawn)	> 10 nM
NCCCNc1ncc2ncnc(Nc3ccc(F)c(Cl)c3)c2n1	> 10 nM
NCCCCNc1ncc2ncnc(Nc3ccc(F)c(Cl)c3)c2n1	> 10 nM
NCC1CCC(CNc2ncc3ncnc(Nc4ccc(F)c(Cl)c4)c3n2)CC1 (stereo not drawn)	> 1 nM
NC[C@H]1CC[C@H](Nc2ncc3ncnc(Nc4ccc(F)c(Cl)c4)c3n2)CC1	> 1 nM
NCCCCCNc1ncc2ncnc(Nc3ccc(F)c(Cl)c3)c2n1	> 1 nM
CC(C)(C)OC(=O)N1CCN(CCNc2ncc3ncnc(Nc4ccc(F)c(Cl)c4)c3n2)CC1	> 1 nM
COC(CNc1ncc2ncnc(Nc3ccc(F)c(Cl)c3)c2n1)OC	> 20 nM
NCC1CCCC(CNc2ncc3ncnc(Nc4ccc(F)c(Cl)c4)c3n2)C1 (stereo not drawn)	> 1 nM
Nc1ccc(CNc2ncc3ncnc(Nc4ccc(F)c(Cl)c4)c3n2)cc1	> 10 nM
CCN(CCO)c1ncc2ncnc(Nc3ccc(F)c(Cl)c3)c2n1	> 1 nM
CC(CN1CCCCC1)Nc1ncc2ncnc(Nc3ccc(F)c(Cl)c3)c2n1 (stereo not drawn)	> 1 nM
NCCNc1ncc2ncnc(Nc3ccc(F)c(Cl)c3)c2n1	> 10 nM
Nc1c(Br)cc(Nc2ncnc3cnc(N4CCC(N)CC4)nc23)cc1Br	> 1 nM
O[C@H]1CC[C@H](Nc2ncc3ncnc(Nc4ccc(-c5ccccc5)cc4)c3n2)CC1	> 10 nM

Structure (SMILES)	IC50
CN1CCC(N(C)c2ncc3ncnc(Nc4ccc(F)c(Cl)c4)c3n2)CC1	10 nM
O=C(N[C@H]1CC[C@H](CNc2ncc3ncnc(Nc4ccc(F)c(Cl)c4)c3n2)CC1)OCc1ccccc1	> 10 nM
Fc1ccc(Nc2ncnc3cnc(NC4CCCN(Cc5ccccc5)CC4)nc23)cc1Cl (stereo not drawn)	> 1 nM
OCc1cccc(Nc2ncnc3cnc(N[C@H]4CC[C@H](O)CC4)nc23)c1	> 1 nM
COC(=O)[C@H]1CC[C@H](Nc2ncc3ncnc(Nc4cc(Cl)c(N)c(Cl)c4)c3n2)CC1	> 10 nM
CC(N)CNc1ncc2ncnc(Nc3ccc(F)c(Cl)c3)c2n1 (stereo not drawn)	> 10 nM
CCN(CC)CC(C)Nc1ncc2ncnc(Nc3ccc(F)c(Cl)c3)c2n1 (stereo not drawn)	> 1 nM
Nc1ncc2ncnc(Nc3ccc(F)c(Cl)c3)c2n1	> 1 nM
O[C@H]1CC[C@H](Nc2ncc3ncnc(Nc4cccc(Oc5ccccc5)c4)c3n2)CC1	> 10 nM
Fc1ccc(Nc2ncnc3cnc(NCC45CCN(CC4)CC5)nc23)cc1Cl	> 1 nM
Nc1c(Cl)cc(Nc2ncnc3cnc(N[C@H]4CC[C@H](C(=O)O)CC4)nc23)cc1Cl	> 1 nM
CC1CC(c2ccc(O)cc2)CN1c1ncc2ncnc(Nc3ccc(F)c(Cl)c3)c2n1 (stereo not drawn)	> 1 nM
Nc1cc(Cl)c(Nc2ncnc3cnc(N[C@H]4CC[C@H](O)CC4)nc23)cc1Cl	> 10 nM
O=C(N1CCOCC1)N1CCN(CCNc2ncc3ncnc(Nc4ccc(F)c(Cl)c4)c3n2)CC1	> 1 nM
Nc1c(Cl)cc(Nc2ncnc3cnc(N[C@H]4CC[C@H](C(=O)N5CCCC5)CC4)nc23)cc1Cl	> 1 nM
Nc1c(Cl)cc(Nc2ncnc3cnc(N[C@H]4CC[C@H](C(=O)N5CCOCC5)CC4)nc23)cc1Cl	> 1 nM

Results, then the molecule that gave them:

IC50	Structure (SMILES)
> 1 nM	NCC1CCN(c2ncc3ncnc(Nc4ccc(F)c(Cl)c4)c3n2)CC1
> 10 nM	Fc1ccc(Nc2ncnc3cnc(N4CCCNCC4)nc23)cc1Cl
> 1 nM	Fc1ccc(Nc2ncnc3cnc(NC4CCCNCC4)nc23)cc1Cl (stereo not drawn)
> 10 nM	O=CNC1CCN(c2ncc3ncnc(Nc4ccc(F)c(Cl)c4)c3n2)CC1
> 20 nM	CC(C)(C)OC(=O)N1CCC(CNc2ncc3ncnc(Nc4ccc(F)c(Cl)c4)c3n2)CC1
10 nM	Fc1ccc(Nc2ncnc3cnc(N4CCC(N5CCCC5)CC4)nc23)cc1Cl
> 1 nM	Fc1ccc(Nc2ncnc3cnc(N4CCCCC4)nc23)cc1Cl
> 1 nM	OC1CCN(c2ncc3ncnc(Nc4ccc(F)c(Cl)c4)c3n2)CC1
> 20 nM	COc1ccccc1N1CCN(c2ncc3ncnc(Nc4ccc(F)c(Cl)c4)c3n2)CC1
> 10 nM	COC(=O)NC1CCN(c2ncc3ncnc(Nc4ccc(F)c(Cl)c4)c3n2)CC1
> 1 nM	CN1CCC(C2CCN(c3ncc4ncnc(Nc5ccc(F)c(Cl)c5)c4n3)CC2)CC1
> 1 nM	NCC1CCCN(c2ncc3ncnc(Nc4ccc(F)c(Cl)c4)c3n2)C1 (stereo not drawn)
> 10 nM	CC(C)(C)OC(=O)N1CCC(Nc2ncc3ncnc(Nc4ccc(F)c(Cl)c4)c3n2)CC1
> 20 nM	Fc1ccc(Nc2ncnc3cnc(N4CCC(N5CCOCC5)CC4)nc23)cc1Cl
> 1 nM	CN1CCC(CNc2ncc3ncnc(Nc4ccc(F)c(Cl)c4)c3n2)CC1
> 10 nM	CC(C)(C)OC(=O)N1CCCC(Nc2ncc3ncnc(Nc4ccc(F)c(Cl)c4)c3n2)CC1 (stereo not drawn)
> 1 nM	N#CN1CCC(Nc2ncc3ncnc(Nc4ccc(F)c(Cl)c4)c3n2)CC1
> 20 nM	COc1cccc(N2CCN(c3ncc4ncnc(Nc5ccc(F)c(Cl)c5)c4n3)CC2)c1
> 1 nM	Fc1ccc(Nc2ncnc3cnc(N4CCCCCC4)nc23)cc1Cl
> 10 nM	COC(=O)[C@H]1CC[C@H](Nc2ncc3ncnc(Nc4ccc(F)c(Cl)c4)c3n2)CC1
> 10 nM	COC(=O)N1CCC(Nc2ncc3ncnc(Nc4ccc(F)c(Cl)c4)c3n2)CC1
> 20 nM	Fc1ccc(Nc2ncnc3cnc(NCC4CCNCC4)nc23)cc1Cl
> 1 nM	NC1CCCN(c2ncc3ncnc(Nc4ccc(F)c(Cl)c4)c3n2)CC1 (stereo not drawn)
> 1 nM	Fc1ccc(Nc2ncnc3cnc(N4CCC(C5CCNCC5)CC4)nc23)cc1Cl
> 10 nM	CN1CCCN(c2ncc3ncnc(Nc4ccc(F)c(Cl)c4)c3n2)CC1

Each molecule was assayed against EGFR (human) (UniProt P00533). Settings: kb.
EGFR (human), sequence (P00533 whole entry, looked up): as above

Structure (SMILES)	IC50
Fc1ccc(Nc2ncnc3cnc(NC4CN5CCC4CC5)nc23)cc1Cl (stereo not drawn)	100 to 1000 nM
NCC1CCC(CNc2ncc3ncnc(Nc4ccc(F)c(Cl)c4)c3n2)CC1 (stereo not drawn)	100 to 1000 nM
CC(CN1CCCCC1)Nc1ncc2ncnc(Nc3ccc(F)c(Cl)c3)c2n1 (stereo not drawn)	100 to 1000 nM
CCN(CC)CC(C)Nc1ncc2ncnc(Nc3ccc(F)c(Cl)c3)c2n1 (stereo not drawn)	100 to 1000 nM
Nc1c(Cl)cc(Nc2ncnc3cnc(N[C@H]4CC[C@H](C(=O)O)CC4)nc23)cc1Cl	100 to 1000 nM
Nc1c(Cl)cc(Nc2ncnc3cnc(N[C@H]4CC[C@H](C(=O)N5CCCC5)CC4)nc23)cc1Cl	100 to 1000 nM
Nc1c(Cl)cc(Nc2ncnc3cnc(N[C@H]4CC[C@H](C(=O)N5CCOCC5)CC4)nc23)cc1Cl	100 to 1000 nM

Other lines, results leading:

IC50	Structure (SMILES)
100 to 1000 nM	NCC1CCN(c2ncc3ncnc(Nc4ccc(F)c(Cl)c4)c3n2)CC1
100 to 1000 nM	COC(=O)N1CCC(Nc2ncc3ncnc(Nc4ccc(F)c(Cl)c4)c3n2)CC1
100 to 1000 nM	Fc1ccc(Nc2ncnc3cnc(N4CCC(C5CCNCC5)CC4)nc23)cc1Cl
